{"source": "PubChem BioAssay AID2060500", "about": "(Molecular Pharmacology Branch, DTP, NCI, 2025)", "system": "596521-263-R-J1-PDC complex spheroids, viability % of control", "test": "Anticancer human tumor 596521-263-R-J1-PDC patient-derived soft tissue sarcoma cell line growth inhibition [GQUAD]", "conditions": "for IC50: curve of first compound; for viability, T/C: stronger effect = lower value", "method_in_brief": "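Tumor cells were grown as complex spheroids with HUVEC endothelial cells and mesenchymal stem cells as stroma. G-quadruplex stabilizers were combined with targeted agents over half-log dilutions from near the clinical Cmax, or from 10 microM.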", "key": {"[1]": {"conditions": "second compound 0.0316 µM, first compound 0.0316 µM"}, "[2]": {"conditions": "second compound 0.0316 µM, first compound 0.1 µM"}, "[3]": {"conditions": "second compound 0.0316 µM, first compound 0.316 µM"}, "[4]": {"conditions": "second compound 0.0316 µM, first compound 1 µM"}, "[5]": {"conditions": "second compound 0.0316 µM, first compound 3.16 µM"}, "[6]": {"conditions": "second compound 0.0316 µM, first compound 10 µM"}, "[7]": {"conditions": "second compound 0.1 µM, first compound 0.0316 µM"}, "[8]": {"conditions": "second compound 0.1 µM, first compound 0.1 µM"}, "[9]": {"conditions": "second compound 0.1 µM, first compound 0.316 µM"}, "[10]": {"conditions": "second compound 0.1 µM, first compound 1 µM"}, "[11]": {"conditions": "second compound 0.1 µM, first compound 3.16 µM"}, "[12]": {"conditions": "second compound 0.1 µM, first compound 10 µM"}, "[13]": {"conditions": "second compound 0.316 µM, first compound 0.0316 µM"}, "[14]": {"conditions": "second compound 0.316 µM, first compound 0.1 µM"}, "[15]": {"conditions": "second compound 0.316 µM, first compound 0.316 µM"}, "[16]": {"conditions": "second compound 0.316 µM, first compound 1 µM"}, "[17]": {"conditions": "second compound 0.316 µM, first compound 3.16 µM"}, "[18]": {"conditions": "second compound 0.316 µM, first compound 10 µM"}, "[19]": {"conditions": "second compound 1 µM, first compound 0.0316 µM"}, "[20]": {"conditions": "second compound 1 µM, first compound 0.1 µM"}, "[21]": {"conditions": "second compound 1 µM, first compound 0.316 µM"}, "[22]": {"conditions": "second compound 1 µM, first compound 1 µM"}, "[23]": {"conditions": "second compound 1 µM, first compound 3.16 µM"}, "[24]": {"conditions": "second compound 1 µM, first compound 10 µM"}, "[25]": {"conditions": "second compound 3.16 µM, first compound 0.0316 µM"}, "[26]": {"conditions": "second compound 3.16 µM, first compound 0.1 µM"}, "[27]": {"conditions": "second compound 3.16 µM, first compound 0.316 µM"}, "[28]": {"conditions": "second compound 3.16 µM, first compound 1 µM"}, "[29]": {"conditions": "second compound 3.16 µM, first compound 3.16 µM"}, "[30]": {"conditions": "second compound 3.16 µM, first compound 10 µM"}, "[31]": {"conditions": "second compound 10 µM, first compound 0.0316 µM"}, "[32]": {"conditions": "second compound 10 µM, first compound 0.1 µM"}, "[33]": {"conditions": "second compound 10 µM, first compound 0.316 µM"}, "[34]": {"conditions": "second compound 10 µM, first compound 1 µM"}, "[35]": {"conditions": "second compound 10 µM, first compound 3.16 µM"}, "[36]": {"conditions": "second compound 10 µM, first compound 10 µM"}}}
{"molecule": "CC(=O)O[C@H]1C(=O)[C@@]2(C)[C@H]([C@H](OC(=O)c3ccccc3)[C@]3(O)C[C@H](OC(=O)[C@H](O)[C@@H](NC(=O)c4ccccc4)c4ccccc4)C(C)=C1C3(C)C)[C@]1(OC(C)=O)CO[C@@H]1C[C@@H]2O", "note": "+ CN(C)c1ccc(Nc2c3ccc(NC(=O)CCN4CCCC4)cc3nc3cc(NC(=O)CCN4CCCC4)ccc23)cc1;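 note: spheroids exposed to drugs for 7 days before viability reading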;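 for viability, T/C: 100% = DMSO vehicle control viability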", "values": [{"measurement": "IC50", "setting": "second compound 0.0316 µM", "result": "< 31.6", "unit": "nM"}, {"measurement": "IC50", "setting": "second compound 0.1 µM", "result": "< 31.6", "unit": "nM"}, {"measurement": "IC50", "setting": "second compound 0.316 µM", "result": "< 31.6", "unit": "nM"}, {"measurement": "IC50", "setting": "second compound 1 µM", "result": "< 31.6", "unit": "nM"}, {"measurement": "IC50", "setting": "second compound 3.16 µM", "result": "< 31.6", "unit": "nM"}, {"measurement": "IC50", "setting": "second compound 10 µM", "result": "< 31.6", "unit": "nM"}, {"measurement": "viability, T/C", "setting": "[1]", "result": 40.7, "unit": "%"}, {"measurement": "viability, T/C", "setting": "[2]", "result": 27.7, "unit": "%"}, {"measurement": "viability, T/C", "setting": "[3]", "result": 25.7, "unit": "%"}, {"measurement": "viability, T/C", "setting": "[4]", "result": 22.9, "unit": "%"}, {"measurement": "viability, T/C", "setting": "[5]", "result": 26.8, "unit": "%"}, {"measurement": "viability, T/C", "setting": "[6]", "result": 31.9, "unit": "%"}, {"measurement": "viability, T/C", "setting": "[7]", "result": 37.5, "unit": "%"}, {"measurement": "viability, T/C", "setting": "[8]", "result": 25.6, "unit": "%"}, {"measurement": "viability, T/C", "setting": "[9]", "result": 24.3, "unit": "%"}, {"measurement": "viability, T/C", "setting": "[10]", "result": 28, "unit": "%"}, {"measurement": "viability, T/C", "setting": "[11]", "result": 23.1, "unit": "%"}, {"measurement": "viability, T/C", "setting": "[12]", "result": 26.6, "unit": "%"}, {"measurement": "viability, T/C", "setting": "[13]", "result": 37.2, "unit": "%"}, {"measurement": "viability, T/C", "setting": "[14]", "result": 27.4, "unit": "%"}, {"measurement": "viability, T/C", "setting": "[15]", "result": 25.2, "unit": "%"}, {"measurement": "viability, T/C", "setting": "[16]", "result": 29.2, "unit": "%"}, {"measurement": "viability, T/C", "setting": "[17]", "result": 29.3, "unit": "%"}, {"measurement": "viability, T/C", "setting": "[18]", "result": 25.3, "unit": "%"}, {"measurement": "viability, T/C", "setting": "[19]", "result": 38.3, "unit": "%"}, {"measurement": "viability, T/C", "setting": "[20]", "result": 29, "unit": "%"}, {"measurement": "viability, T/C", "setting": "[21]", "result": 26.5, "unit": "%"}, {"measurement": "viability, T/C", "setting": "[22]", "result": 25.2, "unit": "%"}, {"measurement": "viability, T/C", "setting": "[23]", "result": 28.3, "unit": "%"}, {"measurement": "viability, T/C", "setting": "[24]", "result": 27.5, "unit": "%"}, {"measurement": "viability, T/C", "setting": "[25]", "result": 35.6, "unit": "%"}, {"measurement": "viability, T/C", "setting": "[26]", "result": 32.1, "unit": "%"}, {"measurement": "viability, T/C", "setting": "[27]", "result": 26.9, "unit": "%"}, {"measurement": "viability, T/C", "setting": "[28]", "result": 27.1, "unit": "%"}, {"measurement": "viability, T/C", "setting": "[29]", "result": 27.3, "unit": "%"}, {"measurement": "viability, T/C", "setting": "[30]", "result": 28.2, "unit": "%"}, {"measurement": "viability, T/C", "setting": "[31]", "result": 34.3, "unit": "%"}, {"measurement": "viability, T/C", "setting": "[32]", "result": 21.7, "unit": "%"}, {"measurement": "viability, T/C", "setting": "[33]", "result": 21.4, "unit": "%"}, {"measurement": "viability, T/C", "setting": "[34]", "result": 21.5, "unit": "%"}, {"measurement": "viability, T/C", "setting": "[35]", "result": 21.6, "unit": "%"}, {"measurement": "viability, T/C", "setting": "[36]", "result": 24.9, "unit": "%"}]}
{"molecule": "CC(C)(O)C1CCC(Nc2ccc3ncc(-c4cccc(C(F)(F)F)c4)n3n2)CC1", "note": "(centres undefined) + CN(C)c1ccc(Nc2c3ccc(NC(=O)CCN4CCCC4)cc3nc3cc(NC(=O)CCN4CCCC4)ccc23)cc1", "values": [{"measurement": "IC50", "setting": "second compound 0.0316 µM", "result": 1420, "unit": "nM"}, {"measurement": "IC50", "setting": "second compound 0.1 µM", "result": 1370, "unit": "nM"}, {"measurement": "IC50", "setting": "second compound 0.316 µM", "result": 1560, "unit": "nM"}, {"measurement": "IC50", "setting": "second compound 1 µM", "result": 1720, "unit": "nM"}, {"measurement": "IC50", "setting": "second compound 3.16 µM", "result": 1520, "unit": "nM"}, {"measurement": "IC50", "setting": "second compound 10 µM", "result": 915, "unit": "nM"}, {"measurement": "viability, T/C", "setting": "[1]", "result": 96.8, "unit": "%"}, {"measurement": "viability, T/C", "setting": "[2]", "result": 97.3, "unit": "%"}, {"measurement": "viability, T/C", "setting": "[3]", "result": 81.7, "unit": "%"}, {"measurement": "viability, T/C", "setting": "[4]", "result": 65, "unit": "%"}, {"measurement": "viability, T/C", "setting": "[5]", "result": 16.9, "unit": "%"}, {"measurement": "viability, T/C", "setting": "[6]", "result": 19.1, "unit": "%"}, {"measurement": "viability, T/C", "setting": "[7]", "result": 94.2, "unit": "%"}, {"measurement": "viability, T/C", "setting": "[8]", "result": 84.5, "unit": "%"}, {"measurement": "viability, T/C", "setting": "[9]", "result": 87, "unit": "%"}, {"measurement": "viability, T/C", "setting": "[10]", "result": 61, "unit": "%"}, {"measurement": "viability, T/C", "setting": "[11]", "result": 20.4, "unit": "%"}, {"measurement": "viability, T/C", "setting": "[12]", "result": 21.6, "unit": "%"}, {"measurement": "viability, T/C", "setting": "[13]", "result": 97, "unit": "%"}, {"measurement": "viability, T/C", "setting": "[14]", "result": 113, "unit": "%"}, {"measurement": "viability, T/C", "setting": "[15]", "result": 83.4, "unit": "%"}, {"measurement": "viability, T/C", "setting": "[16]", "result": 70.5, "unit": "%"}, {"measurement": "viability, T/C", "setting": "[17]", "result": 19.9, "unit": "%"}, {"measurement": "viability, T/C", "setting": "[18]", "result": 20.2, "unit": "%"}, {"measurement": "viability, T/C", "setting": "[19]", "result": 92.9, "unit": "%"}, {"measurement": "viability, T/C", "setting": "[20]", "result": 95.9, "unit": "%"}, {"measurement": "viability, T/C", "setting": "[21]", "result": 78.6, "unit": "%"}, {"measurement": "viability, T/C", "setting": "[22]", "result": 75.5, "unit": "%"}, {"measurement": "viability, T/C", "setting": "[23]", "result": 19.1, "unit": "%"}, {"measurement": "viability, T/C", "setting": "[24]", "result": 24, "unit": "%"}, {"measurement": "viability, T/C", "setting": "[25]", "result": 87.1, "unit": "%"}, {"measurement": "viability, T/C", "setting": "[26]", "result": 97.3, "unit": "%"}, {"measurement": "viability, T/C", "setting": "[27]", "result": 83.8, "unit": "%"}, {"measurement": "viability, T/C", "setting": "[28]", "result": 66.4, "unit": "%"}, {"measurement": "viability, T/C", "setting": "[29]", "result": 18.1, "unit": "%"}, {"measurement": "viability, T/C", "setting": "[30]", "result": 24.2, "unit": "%"}, {"measurement": "viability, T/C", "setting": "[31]", "result": 65.3, "unit": "%"}, {"measurement": "viability, T/C", "setting": "[32]", "result": 61.7, "unit": "%"}, {"measurement": "viability, T/C", "setting": "[33]", "result": 61.1, "unit": "%"}, {"measurement": "viability, T/C", "setting": "[34]", "result": 49, "unit": "%"}, {"measurement": "viability, T/C", "setting": "[35]", "result": 13.8, "unit": "%"}, {"measurement": "viability, T/C", "setting": "[36]", "result": 13.1, "unit": "%"}]}
